# Data as given in ChEMBL document CHEMBL1201862, “PubChem BioAssay data set” (2004).
# Activity calls are given as the source filed them.
# How the values were obtained:
# [1] = viability of uninfected HEp-2 cells – cell-based, HTS, cytotoxicity control for RSV inhibitor project, dose response (AID 2410); format: functional; details: human respiratory syncytial virus
# [2] = molecular target: Sphingosine 1-phosphate receptor 3 (Homo sapiens, UniProt Q99500); experiment: Dose response cell-based high throughput screening assay for antagonists of the Sphingosine 1-Phosphate Receptor 3 (S1P3). [Related pubchem assays: 1429, 485 ]; format: functional
# [3] = molecular target: 5-hydroxytryptamine receptor 1E (Homo sapiens, UniProt P28566); experiment: Counterscreen assay for S1P3 antagonists: Dose response cell-based high throughput screening assay to identify antagonists of the 5-Hydroxytryptamine Receptor Subtype 1E (5HT1E). [Related pubchem assays: 1429, 485 ]; format: functional
# [4] = molecular target: Lysosomal acid glucosylceramidase (Homo sapiens, UniProt P04062); experiment: Dose response cell-based high throughput screening assay to identify enhancers of beta-glucosidase activity. [Related pubchem assays: 784 ]; format: functional
# NS3 = NS3 (Hepatitis C virus, UniProt A3EZJ3); experiment: PubChem AID 2173; parameters: species or system Hepacivirus hominis
# [5] = molecular target: Induced myeloid leukemia cell differentiation protein Mcl-1 (Homo sapiens, UniProt Q07820); format: functional
# [6] = reduction of Shn3 3'UTR-driven luciferase in osteoblasts – cell-based, Clone20 osteoblasts, firefly luciferase, cherry-picked, dose response (AID 624132); format: functional;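 note: firefly luciferase luminescence from reporter carrying the Shn3 3'UTR in osteoblasts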
# [7] = Shn3 3'UTR reporter signal decrease – cell-based, Clone20 osteoblasts, firefly luciferase, cherry-pick, set 2, Schnurri-3 inhibitor project, dose response (AID 720490); format: functional;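 note: actives lower the luminescence signal as inhibitors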
# [8] = Luminescence-based counterscreen assay for KLF5 inhibitors: dose response cell-based high throughput screening assay to identify cytotoxic compounds using the IEC-6 intestinal epithelial cell line. [Related pubchem assays: 1700 (Primary screen.), 1834 (Confirmation screen.), 1858 (Summary AID.), 1905 (Counterscreen.)]; format: functional
# Protein skinhead-1 = molecular target: T1, Protein skinhead-1 (Caenorhabditis elegans, UniProt P34707); format: functional
# T1 sequence (P34707 whole entry): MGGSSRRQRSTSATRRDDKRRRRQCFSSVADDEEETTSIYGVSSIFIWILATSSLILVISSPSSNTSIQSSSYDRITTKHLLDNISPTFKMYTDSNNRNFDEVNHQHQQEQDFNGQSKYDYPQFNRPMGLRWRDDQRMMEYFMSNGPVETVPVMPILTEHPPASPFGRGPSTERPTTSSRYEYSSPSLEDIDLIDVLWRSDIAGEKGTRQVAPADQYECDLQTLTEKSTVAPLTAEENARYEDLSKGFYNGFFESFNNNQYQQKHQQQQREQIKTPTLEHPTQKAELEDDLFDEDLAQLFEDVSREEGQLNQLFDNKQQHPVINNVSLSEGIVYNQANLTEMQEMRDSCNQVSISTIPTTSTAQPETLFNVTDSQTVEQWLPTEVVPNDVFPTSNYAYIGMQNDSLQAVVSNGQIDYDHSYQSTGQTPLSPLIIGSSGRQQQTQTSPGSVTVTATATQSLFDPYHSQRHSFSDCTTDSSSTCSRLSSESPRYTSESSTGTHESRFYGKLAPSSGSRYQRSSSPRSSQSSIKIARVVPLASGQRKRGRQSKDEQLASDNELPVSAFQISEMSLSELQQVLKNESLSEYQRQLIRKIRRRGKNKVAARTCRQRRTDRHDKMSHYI
# [9] = loss of viability in HepG2 cells – cell-based, CellTiter-Glo, cherry-picked, cytotoxicity control for Shn3 inhibitor project, dose response (AID 624134); format: functional
# [10] = HEK-293T viability loss after treatment – luminescence, T-cell screen hits, cytotoxicity control for TCR NF-kB inhibitor project, dose response (AID 489026); format: functional, cell-based;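 note: cells exposed to compound about 14 hours before the viability readout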
# [11] = molecular target: Eukaryotic translation initiation factor 4H (Homo sapiens, UniProt Q15056); experiment: eIF4H binding inhibition – biochemical, uHTS, fluorescence polarization, translation initiation inhibitor project, primary screen (AID 2012)
# [12] = molecular target: T2, Heat shock factor protein 1 (Mus musculus, UniProt P38532); experiment: decrease of HSF1-responsive luciferase luminescence – cell-based, NIH3T3, dose retest, confirmation (AID 2382); format: functional;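 note: NIH3T3 fibroblasts with HSF1-driven luciferase reporter stressed by proteasome inhibitor MG132; luminescence from HSF1-driven luciferase expression after 8 hours of MG132 stress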
# T2 sequence (P38532 whole entry): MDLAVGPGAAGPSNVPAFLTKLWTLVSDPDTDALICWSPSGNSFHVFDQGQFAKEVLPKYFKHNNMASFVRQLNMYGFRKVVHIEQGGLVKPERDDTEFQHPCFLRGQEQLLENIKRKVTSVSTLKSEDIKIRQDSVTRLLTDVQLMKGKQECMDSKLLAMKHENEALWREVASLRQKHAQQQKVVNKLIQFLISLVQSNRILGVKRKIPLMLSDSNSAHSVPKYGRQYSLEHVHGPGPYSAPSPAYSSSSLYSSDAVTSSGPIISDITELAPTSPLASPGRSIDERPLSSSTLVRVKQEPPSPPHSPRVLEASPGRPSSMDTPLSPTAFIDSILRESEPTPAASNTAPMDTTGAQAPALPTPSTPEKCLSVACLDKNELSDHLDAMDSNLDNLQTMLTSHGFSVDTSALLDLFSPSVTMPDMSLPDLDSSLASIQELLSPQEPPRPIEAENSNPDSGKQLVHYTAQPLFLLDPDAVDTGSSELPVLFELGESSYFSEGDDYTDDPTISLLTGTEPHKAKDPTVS
# [13] = molecular target: Polyadenylate-binding protein 1 (Homo sapiens, UniProt P11940); experiment: blockers of PABP interaction with poly(A) – biochemical, fluorescence polarization, […] (AID 2014)
# [14] = molecular target: Sphingosine 1-phosphate receptor 1 (Homo sapiens, UniProt P21453); format: functional;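 note: Tango beta-arrestin reporter U2OS cells stimulated with S1P near its EC80; inhibitor potency meaning antagonism of receptor activation by the natural agonist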
# [15] = molecular target: T3, Sphingosine 1-phosphate receptor 4 (Homo sapiens, UniProt O95977); experiment: Fluorescence dose response cell-based high throughput screening assay for antagonists of the Sphingosine 1-Phosphate Receptor 4 (S1P4). [Related pubchem assays: 1524 (Confirmation in triplicates.), 1510 (Primary screen.)]; format: functional
# T3 sequence (O95977 whole entry): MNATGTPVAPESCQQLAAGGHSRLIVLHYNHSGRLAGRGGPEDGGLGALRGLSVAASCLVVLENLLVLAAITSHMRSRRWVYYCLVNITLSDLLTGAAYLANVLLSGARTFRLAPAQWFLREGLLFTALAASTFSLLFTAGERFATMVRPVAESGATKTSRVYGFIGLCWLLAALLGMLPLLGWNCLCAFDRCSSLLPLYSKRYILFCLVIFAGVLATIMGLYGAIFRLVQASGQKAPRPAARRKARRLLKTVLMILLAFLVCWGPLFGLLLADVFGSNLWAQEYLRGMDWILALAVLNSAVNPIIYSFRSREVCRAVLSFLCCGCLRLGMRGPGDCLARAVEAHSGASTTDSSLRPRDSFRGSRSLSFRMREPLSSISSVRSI
# [16] = THP-1 cell cytotoxicity, dose response, cytotoxicity control for non-replicating M. tuberculosis project (AID 489025); format: functional
# BJ [17] = experiment: BJ-TERT-LT-ST fibroblast viability loss – cell-based, RAS-independent, luminescence, dose response (AID 1935); format: functional; details: Homo sapiens;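 note: BJ fibroblasts immortalized with TERT plus LT and ST oncogenes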
# [18] = molecular target: G-protein coupled receptor 55 (Homo sapiens, UniProt Q9Y2T6); experiment: selective activators of receptor GPR55 – imaging, U2OS cells, beta-arrestin-GFP redistribution, primary screen (AID 1961); format: functional
# BJ [19] = experiment: cells; format: functional, cell-based; details: Homo sapiens
# BJ [20] = experiment: growth inhibition of engineered Ras-driven BJ cells – cell-based, alamar blue fluorescence, cherrypicked samples, dose response (AID 2631); format: functional; details: Homo sapiens;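 note: confirmatory dose-response assay in RAS-dependent BJ fibroblasts engineered with TERT, LT and ST, with cytotoxicity read by fluorescence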
# [21] = DRD fibroblast viability loss – cell-based, non-viral oncogenic, luminescence, dose response (AID 1934); format: functional; details: Homo sapiens
# BJ [22] = experiment: BJ-TERT fibroblast viability loss – cell-based, RAS-independent, luminescence, dose response (AID 1933); format: functional; details: Homo sapiens
# Chain of Induced myeloid leukemia cell differentiation protein Mcl-1 (Q07820 whole entry): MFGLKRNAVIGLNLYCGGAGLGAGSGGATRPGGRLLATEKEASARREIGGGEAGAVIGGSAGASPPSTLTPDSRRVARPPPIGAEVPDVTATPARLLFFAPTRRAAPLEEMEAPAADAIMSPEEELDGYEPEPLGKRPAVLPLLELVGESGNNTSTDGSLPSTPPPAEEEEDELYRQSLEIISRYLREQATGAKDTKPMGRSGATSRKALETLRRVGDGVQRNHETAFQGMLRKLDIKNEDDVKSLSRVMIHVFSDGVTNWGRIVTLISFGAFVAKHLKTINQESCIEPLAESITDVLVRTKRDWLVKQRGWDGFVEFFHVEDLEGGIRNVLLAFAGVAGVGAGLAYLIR
# Chain of Polyadenylate-binding protein 1 (P11940 whole entry): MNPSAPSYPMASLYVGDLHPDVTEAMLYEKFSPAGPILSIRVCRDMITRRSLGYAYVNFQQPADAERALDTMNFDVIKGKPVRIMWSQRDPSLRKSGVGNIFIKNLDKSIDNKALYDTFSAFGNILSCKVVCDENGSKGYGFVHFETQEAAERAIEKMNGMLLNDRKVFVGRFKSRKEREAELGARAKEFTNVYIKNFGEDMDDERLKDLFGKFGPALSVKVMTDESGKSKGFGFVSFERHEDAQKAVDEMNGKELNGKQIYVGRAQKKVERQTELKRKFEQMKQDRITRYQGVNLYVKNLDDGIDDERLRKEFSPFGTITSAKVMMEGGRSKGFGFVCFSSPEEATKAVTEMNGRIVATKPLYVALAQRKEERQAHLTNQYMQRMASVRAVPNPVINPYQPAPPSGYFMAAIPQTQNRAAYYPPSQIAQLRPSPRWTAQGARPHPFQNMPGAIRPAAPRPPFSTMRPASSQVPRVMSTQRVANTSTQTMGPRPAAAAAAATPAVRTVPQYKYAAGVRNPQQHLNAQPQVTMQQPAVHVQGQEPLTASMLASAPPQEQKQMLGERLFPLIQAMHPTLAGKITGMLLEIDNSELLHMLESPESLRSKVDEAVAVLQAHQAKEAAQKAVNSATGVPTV
# Chain of Lysosomal acid glucosylceramidase (P04062 whole entry): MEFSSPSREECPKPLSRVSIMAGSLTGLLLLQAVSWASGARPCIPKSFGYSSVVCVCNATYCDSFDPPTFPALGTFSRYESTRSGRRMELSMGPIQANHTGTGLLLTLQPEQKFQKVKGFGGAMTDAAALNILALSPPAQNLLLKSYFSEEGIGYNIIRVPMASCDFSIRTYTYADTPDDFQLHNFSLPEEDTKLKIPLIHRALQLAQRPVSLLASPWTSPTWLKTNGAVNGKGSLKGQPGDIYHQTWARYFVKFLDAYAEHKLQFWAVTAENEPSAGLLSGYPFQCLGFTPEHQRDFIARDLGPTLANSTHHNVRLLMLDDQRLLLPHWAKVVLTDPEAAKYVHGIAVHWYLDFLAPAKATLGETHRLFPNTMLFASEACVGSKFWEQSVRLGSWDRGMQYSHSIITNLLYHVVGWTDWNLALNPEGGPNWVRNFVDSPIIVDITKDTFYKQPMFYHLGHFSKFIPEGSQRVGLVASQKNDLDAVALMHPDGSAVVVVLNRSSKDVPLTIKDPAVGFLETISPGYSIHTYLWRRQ
# Chain of Sphingosine 1-phosphate receptor 1 (P21453 whole entry): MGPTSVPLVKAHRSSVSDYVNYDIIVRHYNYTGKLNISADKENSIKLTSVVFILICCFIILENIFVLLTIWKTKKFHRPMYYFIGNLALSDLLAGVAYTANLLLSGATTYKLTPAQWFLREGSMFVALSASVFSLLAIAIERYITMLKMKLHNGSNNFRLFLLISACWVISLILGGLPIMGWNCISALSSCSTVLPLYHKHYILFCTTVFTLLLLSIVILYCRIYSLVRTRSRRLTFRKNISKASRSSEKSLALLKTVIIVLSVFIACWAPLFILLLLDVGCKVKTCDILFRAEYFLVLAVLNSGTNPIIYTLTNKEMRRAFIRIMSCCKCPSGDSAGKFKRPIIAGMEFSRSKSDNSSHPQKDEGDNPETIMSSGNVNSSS
# Chain of 5-hydroxytryptamine receptor 1E (P28566 whole entry): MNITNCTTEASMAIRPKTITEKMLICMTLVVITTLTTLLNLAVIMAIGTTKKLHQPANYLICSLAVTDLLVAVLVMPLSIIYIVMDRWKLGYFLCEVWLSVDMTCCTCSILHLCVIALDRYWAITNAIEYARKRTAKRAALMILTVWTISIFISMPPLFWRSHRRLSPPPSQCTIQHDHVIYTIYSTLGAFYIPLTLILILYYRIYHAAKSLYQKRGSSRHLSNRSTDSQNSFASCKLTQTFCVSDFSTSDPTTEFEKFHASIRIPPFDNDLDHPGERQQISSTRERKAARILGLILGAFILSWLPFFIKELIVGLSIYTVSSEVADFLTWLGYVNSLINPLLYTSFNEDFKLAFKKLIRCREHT
# Chain of Sphingosine 1-phosphate receptor 3 (Q99500 whole entry): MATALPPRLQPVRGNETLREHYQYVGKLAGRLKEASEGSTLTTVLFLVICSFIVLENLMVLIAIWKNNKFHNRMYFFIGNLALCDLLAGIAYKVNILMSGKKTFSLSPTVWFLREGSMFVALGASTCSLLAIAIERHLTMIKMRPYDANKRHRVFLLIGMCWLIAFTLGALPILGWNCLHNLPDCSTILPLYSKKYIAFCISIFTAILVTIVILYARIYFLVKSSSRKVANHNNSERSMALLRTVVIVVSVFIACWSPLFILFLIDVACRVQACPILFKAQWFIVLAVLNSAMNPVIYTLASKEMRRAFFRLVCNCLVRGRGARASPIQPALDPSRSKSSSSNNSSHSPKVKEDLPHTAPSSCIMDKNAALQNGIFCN
# Chain of NS3 (A3EZJ3 whole entry): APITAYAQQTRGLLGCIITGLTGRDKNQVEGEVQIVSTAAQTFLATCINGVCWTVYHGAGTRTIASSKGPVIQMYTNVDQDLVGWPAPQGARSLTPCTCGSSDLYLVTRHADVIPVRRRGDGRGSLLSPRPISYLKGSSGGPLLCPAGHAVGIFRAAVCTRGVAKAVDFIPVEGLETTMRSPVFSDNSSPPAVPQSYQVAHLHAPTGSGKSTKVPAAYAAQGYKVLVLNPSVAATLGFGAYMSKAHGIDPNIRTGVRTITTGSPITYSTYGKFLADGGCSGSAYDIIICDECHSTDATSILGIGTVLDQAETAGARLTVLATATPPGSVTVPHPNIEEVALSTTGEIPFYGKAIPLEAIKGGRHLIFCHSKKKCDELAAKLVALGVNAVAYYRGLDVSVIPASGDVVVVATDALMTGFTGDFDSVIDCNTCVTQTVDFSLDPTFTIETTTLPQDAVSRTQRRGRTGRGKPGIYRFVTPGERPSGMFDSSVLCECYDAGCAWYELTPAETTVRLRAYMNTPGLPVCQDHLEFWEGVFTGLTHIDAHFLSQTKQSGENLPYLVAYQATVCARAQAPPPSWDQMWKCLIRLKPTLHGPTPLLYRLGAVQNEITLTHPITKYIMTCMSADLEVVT
# Chain of G-protein coupled receptor 55 (Q9Y2T6 whole entry): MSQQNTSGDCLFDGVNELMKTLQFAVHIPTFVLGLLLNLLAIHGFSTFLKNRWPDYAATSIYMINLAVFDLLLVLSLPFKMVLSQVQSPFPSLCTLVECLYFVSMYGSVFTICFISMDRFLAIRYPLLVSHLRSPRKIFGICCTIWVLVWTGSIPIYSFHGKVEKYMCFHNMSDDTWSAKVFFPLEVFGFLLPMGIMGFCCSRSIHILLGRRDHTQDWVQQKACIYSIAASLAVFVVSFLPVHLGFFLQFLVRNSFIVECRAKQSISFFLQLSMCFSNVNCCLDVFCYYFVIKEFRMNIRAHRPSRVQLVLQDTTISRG
structure (smiles),measurement,setting,value
CCCC[C@@H]1C[C@H]1[C@@H](NC(=O)c1cccs1)c1ccc(Cl)cc1,CC50,[1],20.8 µM (active)
same,IC50,[2],1.21 µM (active)
same,IC50,[3],2.47 µM (active)
CCOC(=O)COc1ccc(-c2nnc(-c3ccccc3)o2)cc1,EC50,[4],> 10 µM (not active)
CNc1ccc(Br)cc(C(=O)/C=C/c2cccc(Cl)c2Cl)c1=O,IC50,NS3,5.02 µM (active)
same,IC50,[5],2.63 µM (active)
c1ccc(-c2noc(-c3ccc4ccccc4c3)n2)nc1,AC50,[6],1.98 µM (active)
same,AC50,[7],5.85 µM (active)
same,IC50,[8],31.9 µM (not active)
same,IC50,Protein skinhead-1,> 100 µM (inactive)
same,AC50,[9],27.6 µM (active)
same,IC50,[10],> 80 µM (inactive)
COc1ccccc1/N=C1/SCCCN1C,IC50,[11],> 100 µM (inactive)
same,EC50,[12],> 195 µM (not active)
same,IC50,[13],3.57 µM (active)
CC1(C)C[C@H]2C=C(C=O)[C@]3(C=O)C[C@]3(C)[C@H]2C1 [ISOVELLERAL],IC50,[14],4.96 µM (active)
same,IC50,[15],253 nM (active)
same,CC50,[16],29.5 µM (active)
same,EC50,BJ [17],3.8 µM (inconclusive)
same,EC50,[18],< 500 nM (active)
same,EC50,BJ [19],5.77 µM (inconclusive)
same,EC50,BJ [20],575 nM (inconclusive)
same,EC50,[21],5.29 µM (inconclusive)
same,EC50,BJ [22],5.11 µM (inconclusive)
same,IC50,[10],> 80 µM (inactive)
same,EC50,[12],0.53 µM (active)
